Drawing on US9365576B2, “Pyrrolopyrrolidinone compounds” (Novartis AG, priority 2012, dated 2016), this text covers IC50 for 22 molecules.

pIC50: −log10 of the molar value.

In this assay the target is human MDM2 protein (amino acids 2-188) (Homo sapiens (Human), UniProt Q00987). As to the kind of experiment: TR-FRET assay, p53-MDM2 Assay 2 (modified). In kind it is binding. The conditions noted are these: TR-FRET; 0.1 nM MDM2, 0.1 nM Europium labeled streptavidin, Tecan genios Pro reader; read-out: IC50 p53-MDM2 Assay 2. As for the experimental part: The inhibition of p53-MDM2 and p53-MDM4 interactions is measured by time resolved fluorescence energy transfer (TR-FRET). Fluorescence energy transfer (or Foerster resonance energy transfer) describes an energy transfer between donor and acceptor fluorescent molecules. For this assay, human MDM2 protein (amino acids 2-188) and human MDM4 protein (amino acids 2-185), tagged with a C-terminal biotin moiety, are used in combination with a Europium labeled streptavidin (Perkin Elmer, Inc., Waltham, Mass., USA) serving as the donor fluorophore. The p53 derived, Cy5 labeled peptide Cy5-[…] (p53 aa18-26) is the energy acceptor. Upon excitation of the donor molecule at 340 nm, binding interaction between MDM2 or MDM4 and the p53 peptide induces energy transfer and enhanced response at the acceptor emission wavelength at 665 nm. […] The ratiometric FRET assay readout is calculated from the raw data of the two distinct fluorescence signals measured in time resolved mode (fluorescence 665 nm/fluorescence 620 nm×1000).
Chain of human MDM2 protein (amino acids 2-188) (Q00987 2-188): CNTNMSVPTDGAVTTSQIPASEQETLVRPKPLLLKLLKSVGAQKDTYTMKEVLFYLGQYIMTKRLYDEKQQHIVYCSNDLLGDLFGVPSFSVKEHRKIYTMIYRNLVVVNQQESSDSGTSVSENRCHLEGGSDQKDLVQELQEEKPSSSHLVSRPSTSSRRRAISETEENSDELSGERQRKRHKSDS
After addition of 1.25 nM MDM2-biotinylated or 2.5 nM MDM4-biotinylated (internal preparations), and 0.625 nM Europium labeled streptavidin (Perkin Elmer), the solution is pre-incubated for 15 minutes at room temperature, then 10 nM Cy5-p53 peptide (internal preparation) is added before an incubation at room temperature for 15 minutes prior to reading the plate. For measurement of samples, a Victor II microplate reader (Perkin Elmer) is used with the following settings: Excitation 340 nm, Emission Donor 620 nm and Emission Acceptor 665 nm. IC50 values are calculated by curve fitting using XLfit. If not specified, reagents are purchased from Sigma-Aldrich Chemie GmBH, Buchs, Switzerland.
Usually pIC50 stands for −log10 of the IC50, conventionally taken in molar units. For `COc1cn(C)c(=O)cc1-c1cc2c(n1C(C)C)C(c1ccc(Cl)cc1)N(c1cc(Cl)c(=O)n(C)c1)C2=O` (stereo not shown) [Example 150, 5-(5-Chloro-1-methyl-6-oxo-1,6-dihydro-pyridin-3-yl)-6-(4-chloro-phenyl)-1-isopropyl-2-(5-methoxy-1-methyl-2-oxo-1,2-dihydro-pyridin-4-yl)-5,6-dihydro-1H-pyrrolo[3,4-b]pyrrol-4-one], the pIC50 is 9.60.

As to `COc1ncc(-c2cc3c(n2C(C)C)C(c2ccc(Cl)cc2)N(C2CCOCC2)C3=O)c(OC)n1` (stereo not shown) [Example 76, 6-(4-Chloro-phenyl)-2-(2,4-dimethoxy-pyrimidin-5-yl)-1-isopropyl-5-(tetrahydro-pyran-4-yl)-5,6-dihydro-1H-pyrrolo[3,4-b]pyrrol-4-one], the pIC50 is 8.79.

In the case of `CNc1ncc(-c2cc3c(n2C(C)C)C(c2ccc(Cl)cc2)N(c2cc(Cl)ccc2C)C3=O)c(OC)n1` (stereo not shown) [Example 26, 5-(5-Chloro-2-methyl-phenyl)-6-(4-chloro-phenyl)-1-isopropyl-2-(4-methoxy-2-methylamino-pyrimidin-5-yl)-5,6-dihydro-1H-pyrrolo[3,4-b]pyrrol-4-one], the pIC50 is 9.71.

`COc1nc(N(C)C)ncc1-c1cc2c(n1C(C)C)C(c1ccc(C#N)c(F)c1)N(c1cc(Cl)c[nH]c1=O)C2=O` (stereo not shown) [Example 201, 4-[5-(5-Chloro-2-oxo-1,2-dihydro-pyridin-3-yl)-2-(2-dimethylamino-4-methoxy-pyrimidin-5-yl)-1-isopropyl-4-oxo-1,4,5,6-tetrahydro-pyrrolo[3,4-b]pyrrol-6-yl]-2-fluoro-benzonitrile]: the pIC50 is 9.60.

With `COc1ccc(C(=O)N(C)C)cc1-c1cc2c(n1C(C)C)C(c1ccc(Cl)cc1)N(c1cc(Cl)ccc1C)C2=O` (stereo not shown) [Example 15, 3-[5-(5-Chloro-2-methyl-phenyl)-6-(4-chloro-phenyl)-1-isopropyl-4-oxo-1,4,5,6-tetrahydro-pyrrolo[3,4-b]pyrrol-2-yl]-4-methoxy-N,N-dimethyl-benzamide], the pIC50 was 9.88.

As to `COc1cnc(CC(=O)O)cc1-c1cc2c(n1C(C)C)C(c1ccc(C#N)cc1)N(c1cccc(Cl)c1F)C2=O` (stereo not shown) [Example 84, {4-[5-(3-Chloro-2-fluoro-phenyl)-6-(4-cyano-phenyl)-1-isopropyl-4-oxo-1,4,5,6-tetrahydro-pyrrolo[3,4-b]pyrrol-2-yl]-5-methoxy-pyridin-2-yl}-acetic acid], the pIC50 was 9.32.

Take `COc1ccccc1-c1cc2c(n1C(C)C)C(c1ccc(Cl)cc1C)N(c1cc(Cl)c(=O)n(C)c1)C2=O` (stereo not shown) [Example 144, 5-(5-Chloro-1-methyl-6-oxo-1,6-dihydro-pyridin-3-yl)-6-(4-chloro-2-methyl-phenyl)-1-isopropyl-2-(2-methoxy-phenyl)-5,6-dihydro-1H-pyrrolo[3,4-b]pyrrol-4-one]: the pIC50 is 9.26.

For `COc1ncc(-c2cc3c(n2C(C)C)C(c2ccc(Cl)cc2)N(C2CCNCC2)C3=O)c(OC)n1` (stereo not shown) [Example 106, 6-(4-Chloro-phenyl)-2-(2,4-dimethoxy-pyrimidin-5-yl)-1-isopropyl-5-piperidin-4-yl-5,6-dihydro-1H-pyrrolo[3,4-b]pyrrol-4-one], the pIC50 was 6.04.

Turning to `COc1ncc(-c2cc3c(n2C(C)C)C(c2ccc(Cl)cc2)N(c2cc(Cl)c(=O)n(C)c2)C3=O)c(OC)n1` (stereo not shown) [Example 48, 5-(5-Chloro-1-methyl-6-oxo-1,6-dihydro-pyridin-3-yl)-6-(4-chloro-phenyl)-2-(2,4-dimethoxy-pyrimidin-5-yl)-1-isopropyl-5,6-dihydro-1H-pyrrolo[3,4-b]pyrrol-4-one], the pIC50 is 9.73.

In the case of `COc1nc(N(C)C)ncc1-c1cc2c(n1C(C)C)[C@H](c1ccc(C#N)cc1)N(c1ccc(F)c(Cl)c1)C2=O` [Example 169, 4-[(S)-5-(3-Chloro-4-fluoro-phenyl)-2-(2-dimethylamino-4-methoxy-pyrimidin-5-yl)-1-isopropyl-4-oxo-1,4,5,6-tetrahydro-pyrrolo[3,4-b]pyrrol-6-yl]-benzonitrile], the pIC50 is 9.45.

Regarding `COc1nc(N(C)C)ncc1-c1cc2c(n1C(C)C)C(c1ccc(C#N)c(F)c1)N(c1cc(Cl)cn(C)c1=O)C2=O` (stereo not shown) [Example 199, 4-[5-(5-Chloro-1-methyl-2-oxo-1,2-dihydro-pyridin-3-yl)-2-(2-dimethylamino-4-methoxy-pyrimidin-5-yl)-1-isopropyl-4-oxo-1,4,5,6-tetrahydro-pyrrolo[3,4-b]pyrrol-6-yl]-2-fluoro-benzonitrile], the pIC50 was 9.59.

As for `COc1nc(N)ncc1-c1cc2c(n1C(C)C)C(c1ccc(Cl)cc1)N(c1cc(Cl)cnc1OC)C2=O` (stereo not shown) [Example 206, 2-(2-Amino-4-methoxy-pyrimidin-5-yl)-5-(5-chloro-2-methoxy-pyridin-3-yl)-6-(4-chloro-phenyl)-1-isopropyl-5,6-dihydro-1H-pyrrolo[3,4-b]pyrrol-4-one], the pIC50 is 9.29.

For `COc1nc(N(C)C)ncc1-c1cc2c(n1C(C)C)C(c1ccc(C#N)cc1)N(c1cc(Cl)cn(C)c1=O)C2=O` (stereo not shown) [Example 131, 4-[5-(5-Chloro-1-methyl-2-oxo-1,2-dihydro-pyridin-3-yl)-2-(2-dimethylamino-4-methoxy-pyrimidin-5-yl)-1-isopropyl-4-oxo-1,4,5,6-tetrahydro-pyrrolo[3,4-b]pyrrol-6-yl]-benzonitrile], the pIC50 was 9.53.

`COc1nc(N(C)C)ncc1-c1cc2c(n1C(C)C)[C@@H](c1ccc(Cl)cc1)N(c1c[nH]c(=O)c(Cl)c1)C2=O` [Example 189, (R)-5-(5-Chloro-6-oxo-1,6-dihydro-pyridin-3-yl)-6-(4-chloro-phenyl)-2-(2-dimethylamino-4-methoxy-pyrimidin-5-yl)-1-isopropyl-5,6-dihydro-1H-pyrrolo[3,4-b]pyrrol-4-one]: the pIC50 is 7.98.

Consider `COc1nc(N)ncc1-c1cc2c(n1C(C)C)C(c1ccc(C#N)cc1)N(c1ccc(F)c(Cl)c1)C2=O` (stereo not shown) [Example 39, 4-[2-(2-Amino-4-methoxy-pyrimidin-5-yl)-5-(3-chloro-4-fluoro-phenyl)-1-isopropyl-4-oxo-1,4,5,6-tetrahydro-pyrrolo[3,4-b]pyrrol-6-yl]-benzonitrile], for which the pIC50 was 9.25.

As to `COc1nc(N)ncc1-c1cc2c(n1C(C)C)C(c1ccc(Cl)cc1)N(c1cc(Cl)ccc1C#N)C2=O` (stereo not shown) [Example 99, 2-[2-(2-Amino-4-methoxy-pyrimidin-5-yl)-6-(4-chloro-phenyl)-1-isopropyl-4-oxo-4,6-dihydro-1H-pyrrolo[3,4-b]pyrrol-5-yl]-4-chloro-benzonitrile], the pIC50 is 8.84.

As for `COc1ncncc1-c1cc2c(n1C(C)C)C(c1ccc(C#N)cc1)N(c1cc(Cl)c(=O)n(C)c1)C2=O` (stereo not shown) [Example 236, 4-(5-(5-Chloro-1-methyl-6-oxo-1,6-dihydropyridin-3-yl)-1-isopropyl-2-(4-methoxypyrimidin-5-yl)-4-oxo-1,4,5,6-tetrahydropyrrolo[3,4-b]pyrrol-6-yl)benzonitrile], the pIC50 is 8.53.

As for `COc1ccc(CC(=O)O)cc1-c1cc2c(n1C(C)C)C(c1ccc(Cl)cc1)N(c1cc(Cl)ccc1C)C2=O` (stereo not shown) [Example 60, {3-[5-(5-Chloro-2-methyl-phenyl)-6-(4-chloro-phenyl)-1-isopropyl-4-oxo-1,4,5,6-tetrahydro-pyrrolo[3,4-b]pyrrol-2-yl]-4-methoxy-phenyl}-acetic acid], the negative-log IC50 (pIC50) was 9.81.

Take `COc1nc(N(C)C)ncc1-c1cc2c(n1C(C)C)C(c1ccc(Cl)cc1C)N(c1cc(Cl)c(=O)n(C)c1)C2=O` (stereo not shown) [Example 147, 5-(5-Chloro-1-methyl-6-oxo-1,6-dihydro-pyridin-3-yl)-6-(4-chloro-2-methyl-phenyl)-2-(2-dimethylamino-4-methoxy-pyrimidin-5-yl)-1-isopropyl-5,6-dihydro-1H-pyrrolo[3,4-b]pyrrol-4-one]: the pIC50 was 9.79.

As to `COc1ccc(CC(=O)O)cc1-c1cc2c(n1C(C)C)C(c1ccc(Cl)cc1)N(c1cc(Cl)c(=O)n(C)c1)C2=O` (stereo not shown) [Example 118, {3-[5-(5-Chloro-1-methyl-6-oxo-1,6-dihydro-pyridin-3-yl)-6-(4-chloro-phenyl)-1-isopropyl-4-oxo-1,4,5,6-tetrahydro-pyrrolo[3,4-b]pyrrol-2-yl]-4-methoxy-phenyl}-acetic acid], the negative logarithm of the IC50 (pIC50) was 9.51.

Consider `CNC(=O)c1ccc(OC)c(-c2cc3c(n2C(C)C)[C@@H](c2ccc(Cl)cc2C)N(c2cccc(Cl)c2F)C3=O)c1` [Example 8, 3-[(R)-5-(3-Chloro-2-fluoro-phenyl)-6-(4-chloro-2-methyl-phenyl)-1-isopropyl-4-oxo-1,4,5,6-tetrahydro-pyrrolo[3,4-b]pyrrol-2-yl]-4-methoxy-N-methyl-benzamide], for which the pIC50 was 7.31.

As to `COc1ncc(-c2cc3c(n2C(C)C)[C@H](c2ccc(C#N)cc2)N(c2cc(Cl)cn(C)c2=O)C3=O)c(OC)n1` [Example 215, 4-[(S)-5-(5-Chloro-1-methyl-2-oxo-1,2-dihydro-pyridin-3-yl)-2-(2,4-dimethoxy-Pyrimidin-5-yl)-1-isopropyl-4-oxo-1,4,5,6-tetrahydro-pyrrolo[3,4-b]pyrrol-6-yl]-benzonitrile], the negative-log IC50 (pIC50) is 9.28.
